Experimental data from US10913727B2, “Modulators of the integrated stress pathway” (Calico Life Sciences LLC, priority 2016, dated 2021).

Tested on: HEK293T cells carrying the ATF4 luciferase reporter
Experiment: ATF4-Luc assay, in vitro model of Vanishing Cell White Matter Disease (VWMD)
Assay type: cell-based
Conditions: Homo sapiens, HEK-293T, 1 μg/mL tunicamycin, 7 hours, One Glo luminescence
Outline: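 Stable HEK293T line with human ATF4 5′-UTR–firefly luciferase reporter treated with 1 μg/mL tunicamycin plus 200 nM compound for 7 h. Luminescence read; EC50 derived.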

O=C1COc2cc(C(=O)NC34CC(NC(=O)COc5ccc(Cl)c(F)c5)(C3)C4)ccc2N1 [Compound 794, N-{3-[2-(4-chloro-3-fluorophenoxy)acetamido]bicyclo[1.1.1]pentan-1-yl}-3-oxo-3,4-dihydro-2H-1,4-benzoxazine-7-carboxamide]
EC50: > 2000 nM

O=C(COc1ccc(Cl)c(F)c1)NC12CC(Nc3nccn4cccc34)(C1)C2 [Compound 434, 2-(4-chloro-3-fluorophenoxy)-N-{3-[(pyrrolo[1,2-a]pyrazin-1-yl)amino]bicyclo[1.1.1]pentan-1-yl}acetamide]
EC50: 250 to 1000 nM

O=C(COc1ccc(Cl)c(F)c1)NC12CC(NC(=O)c3cccc(F)c3F)(C1)C2 [Compound 509, N-{3-[2-(4-chloro-3-fluorophenoxy)acetamido]bicyclo[1.1.1]pentan-1-yl}-2,3-difluorobenzamide]
EC50: 250 to 1000 nM

Cc1cc2ncc(C(=O)NC34CC(NC(=O)COc5ccc(Cl)c(F)c5)(C3)C4)cn2n1 [Compound 748, N-{3-[2-(4-chloro-3-fluorophenoxy)acetamido]bicyclo[1.1.1]pentan-1-yl}-2-methylpyrazolo[1,5-a]pyrimidine-6-carboxamide]
EC50: 250 to 1000 nM

O=C(COc1ccc(Cl)c(F)c1)NC12CC(NC(=O)c3ccco3)(C1)C2 [Compound 304, N-{3-[2-(4-chloro-3-fluorophenoxy)acetamido]bicyclo[1.1.1]pentan-1-yl}furan-2-carboxamide]
EC50: 250 to 1000 nM

CCc1noc(C(=O)NC23CC(NC(=O)COc4ccc(Cl)c(F)c4)(C2)C3)n1 [Compound 479, N-{3-[2-(4-chloro-3-fluorophenoxy)acetamido]bicyclo[1.1.1]pentan-1-yl}-3-ethyl-1,2,4-oxadiazole-5-carboxamide]
EC50: 50 to 250 nM

Cn1ncc2cc(C(=O)NC34CC(NC(=O)COc5ccc(Cl)c(F)c5)(C3)C4)cnc21 [Compound 620, N-{3-[2-(4-chloro-3-fluorophenoxy)acetamido]bicyclo[1.1.1]pentan-1-yl}-1-methyl-1H-pyrazolo[3,4-b]pyridine-5-carboxamide]
EC50: 1000 to 2000 nM

O=C(COc1ccc(Cl)c(F)c1)NC12CC(NC(=O)c3cnn4c3CCCC4)(C1)C2 [Compound 903, N-{3-[2-(4-chloro-3-fluorophenoxy)acetamido]bicyclo[1.1.1]pentan-1-yl}-4,5,6,7-tetrahydropyrazolo[1,5-a]pyridine-3-carboxamide]
EC50: > 2000 nM

Cc1c(C(=O)NC23CC(NC(=O)COc4ccc(Cl)c(F)c4)(C2)C3)cnn1C [Compound 882, N-{3-[2-(4-chloro-3-fluorophenoxy)acetamido]bicyclo[1.1.1]pentan-1-yl}-1,5-dimethyl-1H-pyrazole-4-carboxamide]
EC50: > 2000 nM

O=C(COc1ccc(Cl)c(F)c1)NC12CC(NC(=O)c3ccc[nH]3)(C1)C2 [Compound 307, N-{3-[2-(4-chloro-3-fluorophenoxy)acetamido]bicyclo[1.1.1]pentan-1-yl}-1H-pyrrole-2-carboxamide]
EC50: 250 to 1000 nM

N#Cc1ccc(C(=O)NC23CC(NC(=O)COc4ccc(Cl)c(F)c4)(C2)C3)cc1F [Compound 371, N-{3-[2-(4-chloro-3-fluorophenoxy)acetamido]bicyclo[1.1.1]pentan-1-yl}-4-cyano-3-fluorobenzamide]
EC50: 50 to 250 nM

O=C(COc1ccc(F)c(F)c1)NC12CC(NC(=O)c3ccc(OC(F)(F)F)nc3)(C1)C2 [Compound 277, N-{3-[2-(3,4-difluorophenoxy)acetamido]bicyclo[1.1.1]pentan-1-yl}-6-(trifluoromethoxy)pyridine-3-carboxamide]
EC50: 1000 to 2000 nM

O=C(COc1ccc(Cl)c(F)c1)NC12CC(Nc3nnc(-c4ccc(Cl)cc4)o3)(C1)C2 [Compound 421, 2-(4-chloro-3-fluorophenoxy)-N-(3-{[5-(4-chlorophenyl)-1,3,4-oxadiazol-2-yl]amino}bicyclo[1.1.1]pentan-1-yl)acetamide]
EC50: 250 to 1000 nM

O=C(COc1ccc(Cl)c(F)c1)NC12CCC(NC(=O)c3ccno3)(CC1)CC2O (stereo not drawn) [Compound 628, N-{4-[2-(4-chloro-3-fluorophenoxy)acetamido]-3-hydroxybicyclo[2.2.2]octan-1-yl}-1,2-oxazole-5-carboxamide]
EC50: 250 to 1000 nM

O=C(COc1ccc(Cl)c(F)c1)NC12CCC(NC(=O)c3cccc(N4CCOCC4)n3)(CC1)CC2O (stereo not drawn) [Compound 942, N-{4-[2-(4-chloro-3-fluorophenoxy)acetamido]-3-hydroxybicyclo[2.2.2]octan-1-yl}-6-(morpholin-4-yl)pyridine-2-carboxamide]
EC50: 1000 to 2000 nM

CC(=O)Nc1nc(C(=O)NC23CC(NC(=O)COc4ccc(Cl)c(F)c4)(C2)C3)cs1 [Compound 870, 2-acetamido-N-{3-[2-(4-chloro-3-fluorophenoxy)acetamido]bicyclo[1.1.1]pentan-1-yl}-1,3-thiazole-4-carboxamide]
EC50: > 2000 nM

O=C(COc1ccc(Cl)c(Cl)c1)NC12CC(Nc3cnc(C(F)(F)F)cn3)(C1)C2 [Compound 101, 2-(3,4-dichlorophenoxy)-N-(3-{[5-(trifluoromethyl)pyrazin-2-yl]amino}bicyclo-[1.1.1]pentan-1-yl)acetamide]
EC50: > 2000 nM

O=C(COc1ccc(Cl)c(F)c1)NC12CC(NC(=O)c3cccc(C(F)(F)F)n3)(C1)C2 [Compound 781, N-{3-[2-(4-chloro-3-fluorophenoxy)acetamido]bicyclo[1.1.1]pentan-1-yl}-6-(trifluoromethyl)pyridine-2-carboxamide]
EC50: > 2000 nM

Cc1noc2ncc(C(=O)NC34CC(NC(=O)COc5ccc(Cl)c(F)c5)(C3)C4)cc12 [Compound 791, N-{3-[2-(4-chloro-3-fluorophenoxy)acetamido]bicyclo[1.1.1]pentan-1-yl}-3-methyl[1,2]oxazolo[5,4-b]pyridine-5-carboxamide]
EC50: > 2000 nM

O=C(COc1ccc(Cl)c(F)c1)NC12CCC(NC(=O)c3ccc(F)cc3)(CC1)CC2O (stereo not drawn) [Compound 231, N-{4-[2-(4-chloro-3-fluorophenoxy)acetamido]-3-hydroxybicyclo[2.2.2]octan-1-yl}-4-fluorobenzamide]
EC50: 50 to 250 nM

COc1ccc2oc(C(=O)NC34CC(NC(=O)COc5ccc(Cl)c(F)c5)(C3)C4)cc2c1 [Compound 319, N-{3-[2-(4-chloro-3-fluorophenoxy)acetamido]bicyclo[1.1.1]pentan-1-yl}-5-methoxy-1-benzofuran-2-carboxamide]
EC50: 50 to 250 nM

CC(C)(O)/C=C/c1ccnc(C(=O)NC23CC(NC(=O)COc4ccc(Cl)c(F)c4)(C2)C3)c1 [Compound 430, N-{3-[2-(4-chloro-3-fluorophenoxy)acetamido]bicyclo[1.1.1]pentan-1-yl}-4-[(1E)-3-hydroxy-3-methylbut-1-en-1-yl]pyridine-2-carboxamide]
EC50: > 2000 nM

Cc1cc(C(=O)NC23CCC(NC(=O)COc4ccc(Cl)c(F)c4)(CC2)[C@@H](O)C3)sn1 [Compound 679, N-{(3S)-4-[2-(4-chloro-3-fluorophenoxy)acetamido]-3-hydroxybicyclo[2.2.2]octan-1-yl}-3-methyl-1,2-thiazole-5-carboxamide]
EC50: < 50 nM

O=C(COc1ccc(Cl)c(Cl)c1)NC12CC(NC(=O)c3cc(OC(F)F)ccn3)(C1)C2 [Compound 716, N-{3-[2-(3,4-dichlorophenoxy)acetamido]bicyclo[1.1.1]pentan-1-yl}-4-(difluoromethoxy)pyridine-2-carboxamide]
EC50: 250 to 1000 nM

CSCc1ccc(C(=O)NC23CC(NC(=O)COc4ccc(Cl)c(F)c4)(C2)C3)o1 [Compound 830, N-{3-[2-(4-chloro-3-fluorophenoxy)acetamido]bicyclo[1.1.1]pentan-1-yl}-5-[(methylsulfanyl)methyl]furan-2-carboxamide]
EC50: 50 to 250 nM

Cc1cc(C(=O)NC23CC(NC(=O)COc4ccc(Cl)c(F)c4)(C2)C3)oc1C [Compound 612, N-{3-[2-(4-chloro-3-fluorophenoxy)acetamido]bicyclo[1.1.1]pentan-1-yl}-4,5-dimethylfuran-2-carboxamide]
EC50: 50 to 250 nM

CSc1ncccc1C(=O)NC12CC(NC(=O)COc3ccc(Cl)c(F)c3)(C1)C2 [Compound 828, N-{3-[2-(4-chloro-3-fluorophenoxy)acetamido]bicyclo[1.1.1]pentan-1-yl}-2-(methylsulfanyl)pyridine-3-carboxamide]
EC50: > 2000 nM

Cc1cn2ccnc(NC34CC(NC(=O)COc5ccc(Cl)c(F)c5)(C3)C4)c2n1 [Compound 463, 2-(4-chloro-3-fluorophenoxy)-N-{3-[(2-methylimidazo[1,2-a]pyrazin-8-yl)amino]bicyclo[1.1.1]pentan-1-yl}acetamide]
EC50: 50 to 250 nM

O=C(COc1ccc(Cl)c(F)c1)NC12CC(NC(=O)c3ncc4ccccc4n3)(C1)C2 [Compound 749, N-{3-[2-(4-chloro-3-fluorophenoxy)acetamido]bicyclo[1.1.1]pentan-1-yl}quinazoline-2-carboxamide]
EC50: 50 to 250 nM

COCc1cccc(C(=O)NC23CC(NC(=O)COc4ccc(Cl)c(F)c4)(C2)C3)n1 [Compound 174, N-{3-[2-(4-chloro-3-fluorophenoxy)acetamido]bicyclo[1.1.1]pentan-1-yl}-6-(methoxymethyl)pyridine-2-carboxamide]
EC50: 250 to 1000 nM

CCc1cc(C(=O)NC23CCC(NC(=O)COc4ccc(Cl)c(F)c4)(CC2)[C@@H](O)C3)no1 [Compound 668, N-{(3S)-4-[2-(4-chloro-3-fluorophenoxy)acetamido]-3-hydroxybicyclo[2.2.2]octan-1-yl}-5-ethyl-1,2-oxazole-3-carboxamide]
EC50: < 50 nM

COc1cc(C(=O)NC23CC(NC(=O)COc4ccc(Cl)c(F)c4)(C2)C3)ccn1 [Compound 763, N-{3-[2-(4-chloro-3-fluorophenoxy)acetamido]bicyclo[1.1.1]pentan-1-yl}-2-methoxypyridine-4-carboxamide]
EC50: > 2000 nM

O=C(COc1ccc(Cl)c(F)c1)NC12CC(NC(=O)c3ccccc3-n3cccn3)(C1)C2 [Compound 839, N-{3-[2-(4-chloro-3-fluorophenoxy)acetamido]bicyclo[1.1.1]pentan-1-yl}-2-(1H-pyrazol-1-yl)benzamide]
EC50: > 2000 nM
